According to patent publication US20150265666A1, “BOTANICAL ANTIMICROBIAL COMPOSITIONS” (THE TRUSTEES OF COLUMBIA UNIVERSITY IN THE CITY OF NEW YORK, priority 2012, published 2015):
“Also recorded” adds a separate entry of the source.

Legend:
S. aureus [1] = assay: Rapid kill method (10^8 cfu/ml S. aureus), 15 seconds, oral rinse base; type: cell-based
Procedure: Synergistic effect of botanical extracts and biguanides (Rapid kill method (108 S. aureus)): The antimicrobial effect of an oral rinse base, containing the ingredients described in table 10 below, were tested against a high concentration of bacteria. In a sterile culture tube, 0.1 ml of S. aureus (10^8 cfu/ml) was treated with 0.9 ml of test mouthrinse for 15 seconds. The reaction was stopped with Drug neutralizing Fluid (DNF) and then further diluted with the same media. 0.5 ml of the dilution was then plated on Tripticase Soy Agar (TSA) and incubated at 37° C. overnight. The colony counts were determined and the log 10 reduction from the control (phosphate-buffered saline (PBS) inoculated with the same culture) was calculated.

S. aureus [2] = assay: ASTM E 2783-11 protocol, 15 seconds, ingredients in Base A (Example 16); type: cell-based; settings: for Log reduction compared to control: ingredients in Base A; for synergistic activity with chlorhexidine (in words): Experiment 1, Base A
Procedure: The antimicrobial efficacy of a composition comprising biguanides and fennel oil, thyme oil/thymol and/or vanilla oil was tested against S. aureus (10^7 cfu/ml). […] In-vitro study Test organism: S. aureus (10^7 cfu/ml) […] These plates were incubated at 37° C. for 24 hours and the colony counts (cfu)/ml were determined.

[3] = system: human dennal, gingival and osteoblastic cell lines; settings: cited from earlier work
[4] = use as oral antiseptic; cited from earlier work
[5] = system: murine fibroblasts cell lines; settings: cited from earlier work
[6] = 0.12% solutions, oral decontamination prior to mechanical intubation; cited from earlier work
[7] = system: methicillin-resistant Staphylococcus aureus (“MRSA”); assay: MRSA Rapid-Kill Assay (tube-dilution, US FDA-TFM, 15 second exposure); type: cell-based
P. aeruginosa = assay: Agar-plate method: sample spread on TSA, 1 hr, then inoculated; log10 reduction; type: cell-based; settings: Example 3
Procedure: For oral care products, PHMB is preferred because BAC can produce mucosal irritation. PHMB is effective against gram negative bacteria. Therefore P. aeruginosa which is a gram negative organism was used in these tests. An agar-plate method was used/0.5 ml of the test sample was spread on TSA plates and for control PBS was used in the plate. These plates were incubated for 1 hr in the incubator at temperature 37±1° C. After 1 hr, the plates were taken out of the incubator and inoculated with 0.5 ml of 1×10^3 cfu/ml culture of P. aeruginosa. The plates were incubated for 18-24 hrs at 37±1° C. The antibacterial activity was determined by calculating the difference in log 10 colony-forming units (cfu) between control and test samples (i.e., log 10 reduction).

[8] = Experiment 1, S. aureus 10^7 cfu/ml, T, B, F, V each 0.1 % w/w, CHG 0.12 % w/w
[9] = Experiment 2, S. aureus 10^7 cfu/ml, each 0.1 % w/w

N=C(NCCCCCCNC(=N)NC(=N)Nc1ccc(Cl)cc1)NC(=N)Nc1ccc(Cl)cc1 [CHX (0.06%)]
Log10 Growth (S. aureus [1]; Table 10, in oral rinse base, control growth 7.29): 5.60 log10
Log10 Reduction (S. aureus [1]; Table 10, in oral rinse base, reduction from control (PBS)): 1.69 log10

[H]/N=C(\N/C(=N/[H])NCCCCCCNC(=N)NC(=N)Nc1ccc(Cl)cc1)Nc1ccc(Cl)cc1 [Chlorhexidine (CHG)]
Log reduction compared to control (S. aureus [2]; [8]): 0.73 log

Cc1ccc(C(C)C)c(O)c1 [T (Thymol)]
Log reduction compared to control (S. aureus [2]; [8]): 1.29 log
Log reduction compared to control (S. aureus [2]; [9]): 1.29 log

[H]/N=C(\N/C(=N/[H])NCCCCCCNC(=N)NC(=N)Nc1ccc(Cl)cc1)Nc1ccc(Cl)cc1 [chlorhexidine]
cytotoxicity [3]: cytotoxic
adverse effects [4]: irritation of the oral mucosa, discoloration of teeth and altered taste perception
cytotoxicity [5]: cytotoxic
synergistic activity with chlorhexidine (in words) (S. aureus [2]; 10^7 cfu/ml): combination of either fennel seed oil and thymol or fennel seed oil, thymol and vanilla oil with chlorhexidine also exhibited synergistic activity
synergistic activity with chlorhexidine (in words) (S. aureus [2]; 10^7 cfu/ml, listed as Chlorhexidine): exhibits synergistic activity when combined with either thymol or basil oil
synergistic antibacterial activity of botanical extracts and biguanides (in words) (S. aureus [1]; Example 10): did not show such synergism
risk of acquiring VAP [6]: can reduce the risk of acquiring VAP

benzalkonium chloride [BAC]
antibacterial activity, effect of combining actives (in words) ([7]; Example 1, actives in base formulation): enhanced the activity of essential oil mixtures containing thymol
antibacterial activity, effect of combining actives (in words) ([7]; Example 4): enhances the activity of essential oils (CN+LG+T)
Log reduction from control growth ([7]; Table 1, MRSA, conc. active agent 0.13 % w/w): 0.05 log10
Log reduction from control growth ([7]; Table 2, MRSA, conc. active agent 0.13 % w/w): 0.05 log10
Log reduction from control growth ([7]; Table 5A, MRSA, conc. active agent 0.6 % w/w): 0.5 log10

pentanediol
antibacterial activity, effect of combining actives (in words) (P. aeruginosa): enhanced the activity of low concentrations of essential oils and lemon extract

polyhexamethylene biguanide [PHMB]
antibacterial activity, effect of combining actives (in words) (P. aeruginosa): enhanced the activity of low concentrations of essential oils and lemon extract
synergistic activity with PHMB (in words) (S. aureus [2]; Experiment 2, Base A, 10^7 cfu/ml): exhibited synergistic activity when combined with either thymol or vanilla oil; also recorded: combination of either fennel seed oil and thymol or fennel seed oil, thymol and vanilla oil with PHMB also exhibited synergistic activity
Log reduction compared to control (S. aureus [2]; [9]): 1.96 log
antibacterial activity, effect of combining actives (in words) ([7]; Example 1, PHMB at 0.06%): showed synergistic activity with essential oils
Log reduction from control growth ([7]; Table 1, MRSA, conc. active agent 0.012 % w/w): 0.4 log10
Log reduction from control growth ([7]; Table 1, MRSA, conc. active agent 0.06 % w/w): 3.1 log10
Log reduction from control growth ([7]; Table 2, MRSA, conc. active agent 0.012 % w/w): 0.4 log10
Log reduction from control growth ([7]; Table 5B, MRSA, conc. active agent 0.06 % w/w): 4.0 log10
